From ChEMBL document CHEMBL6153082, “Macrocyclization as a Strategy for Kinetic Solubility Improvement: A Comparative Analysis of Matched Molecular Pairs” (J Med Chem, 2025)
Values after ≈ are worked out from the molar mass of the structure shown.

Assays:
[1] = Solubility of compound at pH 7.4; format: physicochemical; conditions: buffer
[2] = Efflux ratio in dog MDCK cells; format: ADME, cell-based, Canis lupus familiaris
[3] = Unbound fraction in mouse microsome incubated for 4 hrs by LC-MS/MS analysis; format: ADME; conditions: microsomes
[4] = Lipophilicity, logD of the compound in n-octanol/aqueous at pH 7.4 incubated overnight by UPLC analysis; format: physicochemical
[5] = Apparent permeability across apical to basolateral side in MDCK cells; format: ADME, cell-based, Canis lupus familiaris; conditions: dog
[6] = Apparent permeability across basolateral to apical side in MDCK cells; format: ADME, cell-based, Canis lupus familiaris; conditions: dog
[7] = Metabolic stability in mouse liver microsomes assessed as half life in presence of NADPH incubated for 30 mins by LC-MS/MS analysis; format: ADME, Microsome
[8] = Kinetic aqueous solubility of compound at pH 7.4 at 5 to 300 uM; format: physicochemical; conditions: dose 5-300 µM, read-out: Kinetic_solubility
[9] = Dissociation constant, pKa of the compound by potentiometric titration analysis; format: physicochemical

Compound	solubility [1] [µM]	Ratio [2]	fraction unbound at 4 h [3]	logD [4]	Papp [5]	Papp [6]	half-life [7] [min]	solubility kinetic [8] [µM]	efflux ratio [2]	Papp A→B [5] [nm/s]	Papp B→A [6] [nm/s]	pKa [9]
CCC[C@H]1NC(=O)c2cccnc2OCCOCCN(C2CCCC2)CC2CCN(CC2)C1=O	303 (≈ 143 µg/mL)	–	–	1.5	–	–	7.4	–	5.4	100	560	–
CCOc1ccccc1C(=O)N1CCN(C2CCCC2)C[C@@H]1C(=O)NC[C@@H]1CCCCO1	170 (≈ 75.4 µg/mL)	12	0.68	2.5	29 10^-6 cm/s	44 10^-6 cm/s	1	–	–	–	–	–
CCCc1cn(CCCOc2cc([C@@H](C(=O)N3CCCC[C@H]3C(=O)OC)C3CCCCC3)cc(OC)c2OC)nn1	–	–	–	–	–	–	–	65 (≈ 37.1 µg/mL)	–	–	–	–
CCC[C@@H](NC(=O)c1cccnc1OC)C(=O)N1CCC(CCN(CCOC)C2CCN(C)CC2)CC1	303 (≈ 157 µg/mL)	38	0.77	0.8	93 10^-6 cm/s	88 10^-6 cm/s	103	–	–	–	–	–
C=CCOc1ccccc1CN(CC(=O)N1CCC(CC(=O)NC2CC2)CC1)C1CCCC1	192 (≈ 87.1 µg/mL)	4	1	1.8	3 10^-6 cm/s	68 10^-6 cm/s	5	–	–	–	–	–
CCOc1ccccc1C(=O)N1CCN(Cc2ccccc2)C[C@@H]1C(=O)NC[C@@H]1CCCCO1	237 (≈ 110 µg/mL)	21	1	3.2	33 10^-6 cm/s	49 10^-6 cm/s	1	–	–	–	–	7.4
COc1cc2cc(c1OC)O[C@@H](C)CCn1cc(nn1)CCCCOC(=O)[C@@H]1CCCCN1C(=O)[C@H]2C1CCCCC1	–	–	–	–	–	–	–	100 (≈ 58.3 µg/mL)	–	–	–	–
C=CCOc1ccccc1CN(CC(=O)N1CCC(CC(=O)NC2CC2)CC1)C(C)C	167 (≈ 71.4 µg/mL)	2	1	1	2 10^-6 cm/s	57 10^-6 cm/s	16	–	–	–	–	–
CCOc1ccccc1C(=O)N1CCN(Cc2ccccc2)C[C@@H]1C(=O)NC[C@H]1CCCCO1	287 (≈ 134 µg/mL)	69	1	3.2	32 10^-6 cm/s	49 10^-6 cm/s	120	–	–	–	–	7.4
COc1cc2cc(c1OC)OCCCn1cc(nn1)CCCCOC(=O)[C@@H]1CCCCN1C(=O)[C@H]2C1CCCCC1	–	–	–	–	–	–	–	100 (≈ 56.9 µg/mL)	–	–	–	–

The next lines start with the values.

solubility [1] [µM]	Ratio [2]	fraction unbound at 4 h [3]	logD [4]	Papp [5]	Papp [6]	half-life [7] [min]	solubility kinetic [8] [µM]	efflux ratio [2]	Papp A→B [5] [nm/s]	Papp B→A [6] [nm/s]	pKa [9]	Compound
303 (≈ 134 µg/mL)	29	0.68	2.5	32 10^-6 cm/s	50 10^-6 cm/s	120	–	–	–	–	–	CCOc1ccccc1C(=O)N1CCN(C2CCCC2)C[C@@H]1C(=O)NC[C@H]1CCCCO1
–	–	–	–	–	–	–	103 (≈ 47.1 µg/mL)	–	–	–	–	COc1cc2cc(c1OC)OC/C=C/COC(=O)[C@@H]1CCCCN1C(=O)[C@H]2C1CCCCC1
244 (≈ 118 µg/mL)	2	0.76	0.5	1 10^-6 cm/s	11 10^-6 cm/s	120	–	–	–	–	–	C=CCOc1ccccc1CN(CC(=O)N1CCC(CC(=O)NC2CC2)CC1)C1CCN(C)CC1
–	–	–	–	–	–	–	45 (≈ 20.8 µg/mL)	–	–	–	–	CCCOC(=O)[C@@H]1CCCCN1C(=O)[C@H](c1cc(OC)c(OC)c(OC)c1)C1CCCCC1
–	–	–	–	–	–	–	137 (≈ 63 µg/mL)	–	–	–	–	COc1cc2cc(OC)c1OCCCCOC(=O)[C@@H]1CCCCN1C(=O)[C@H]2C1CCCCC1
83.5 (≈ 39.7 µg/mL)	66	0.57	3.8	8 10^-6 cm/s	33 10^-6 cm/s	1	–	–	–	–	–	C=CCOc1ccccc1CN(CC(=O)N1CCC(CC(=O)NC2CC2)CC1)Cc1ccccc1
–	–	–	–	–	–	–	12 (≈ 5.51 µg/mL)	–	–	–	–	C=CCOC(=O)[C@@H]1CCCCN1C(=O)[C@H](c1cc(OC)c(OC)c(OC)c1)C1CCCCC1
–	–	–	–	–	–	–	65 (≈ 38 µg/mL)	–	–	–	–	CCCc1cn(CC[C@H](C)Oc2cc([C@@H](C(=O)N3CCCC[C@H]3C(=O)OC)C3CCCCC3)cc(OC)c2OC)nn1
